Values joined by “and” are separate entries in the source; they are usually repeats but may differ in a detail not shown here. Equal entries are not always repeated.
Key:
Assay in all cases: Kinase inhibitor specificity profiling (Reaction Biology Corporation)
Format in all cases: biochemical
Design in all cases: % Enzyme Activity (relative to DMSO controls): concentration or dose not given beside the values
[1] = target: T1, panel of 370 protein kinases (Homo sapiens, UniProt Q16512); conditions: 2 h, kinase PKN1/PRK1; read-out: % Enzyme Activity (relative to DMSO controls)
T1 construct: purchased Reaction Biology Corporation (assay service)

[2] = target: T2, panel of 370 protein kinases (Homo sapiens, UniProt P29597); conditions: kinase TYK2
T2 construct: purchased Reaction Biology Corporation (assay service)

[3] = target: T3, panel of 370 protein kinases (Homo sapiens, UniProt P08631); conditions: 2 h, kinase HCK; read-out: % Enzyme Activity (relative to DMSO controls)
T3 construct: purchased Reaction Biology Corporation (assay service)

[4] = target: T4, panel of 370 protein kinases (Homo sapiens, UniProt Q9NYY3); conditions: kinase PLK2
T4 construct: purchased Reaction Biology Corporation (assay service)

[5] = target: T5, panel of 370 protein kinases (Homo sapiens, UniProt Q8TD19); conditions: 2 h, kinase NEK9; read-out: % Enzyme Activity (relative to DMSO controls)
T5 construct: purchased Reaction Biology Corporation (assay service)

[6] = target: T6, panel of 370 protein kinases (Homo sapiens, UniProt O00311); conditions: 2 h, read-out: % Enzyme Activity (relative to DMSO controls), kinase CDC7/DBF4
T6 construct: purchased Reaction Biology Corporation (assay service)

[7] = target: T7, panel of 370 protein kinases (Homo sapiens, UniProt O75676); conditions: 2 h, kinase MSK2/RPS6KA4; read-out: % Enzyme Activity (relative to DMSO controls)
T7 construct: purchased Reaction Biology Corporation (assay service)

[8] = target: T8, panel of 370 protein kinases (Homo sapiens, UniProt Q00526)
T8 construct: purchased Reaction Biology Corporation (assay service)

[9] = target: T9, panel of 370 protein kinases (Homo sapiens, UniProt Q9Y6E0); conditions: kinase MST3/STK24
T9 construct: purchased Reaction Biology Corporation (assay service)

[10] = target: T10, panel of 370 protein kinases (Homo sapiens, UniProt P41279); conditions: 2 h, kinase COT1/MAP3K8; read-out: % Enzyme Activity (relative to DMSO controls)
T10 construct: purchased Reaction Biology Corporation (assay service)

[11] = target: T11, panel of 370 protein kinases (Homo sapiens, UniProt P22694); conditions: 2 h, kinase PKAcb; read-out: % Enzyme Activity (relative to DMSO controls)
T11 construct: purchased Reaction Biology Corporation (assay service)

[12] = target: T12, panel of 370 protein kinases (Homo sapiens, UniProt Q08881); conditions: kinase ITK
T12 construct: purchased Reaction Biology Corporation (assay service)

[13] = target: T13, panel of 370 protein kinases (Homo sapiens, UniProt Q13237); conditions: 2 h, kinase PKG2/PRKG2; read-out: % Enzyme Activity (relative to DMSO controls)
T13 construct: purchased Reaction Biology Corporation (assay service)

[14] = target: T14, panel of 370 protein kinases (Homo sapiens, UniProt O15111); conditions: 2 h, kinase IKKa/CHUK; read-out: % Enzyme Activity (relative to DMSO controls)
T14 construct: purchased Reaction Biology Corporation (assay service)

[15] = target: T15, panel of 370 protein kinases (Homo sapiens, UniProt Q9HBH9); conditions: 2 h, kinase MNK2; read-out: % Enzyme Activity (relative to DMSO controls)
T15 construct: purchased Reaction Biology Corporation (assay service)

[16] = target: T16, panel of 370 protein kinases (Homo sapiens, UniProt Q8IVT5); conditions: 2 h, kinase KSR1; read-out: % Enzyme Activity (relative to DMSO controls)
T16 construct: purchased Reaction Biology Corporation (assay service)

[17] = target: T17, panel of 370 protein kinases (Homo sapiens, UniProt Q9P0L2); conditions: 2 h, kinase MARK1; read-out: % Enzyme Activity (relative to DMSO controls)
T17 construct: purchased Reaction Biology Corporation (assay service)

[18] = target: T18, panel of 370 protein kinases (Homo sapiens, UniProt P48729); conditions: 2 h, kinase CK1a1; read-out: % Enzyme Activity (relative to DMSO controls)
T18 construct: purchased Reaction Biology Corporation (assay service)

[19] = target: T19, panel of 370 protein kinases (Homo sapiens, UniProt P04049); conditions: 2 h, kinase RAF1; read-out: % Enzyme Activity (relative to DMSO controls)
T19 construct: purchased Reaction Biology Corporation (assay service)

[20] = target: T20, panel of 370 protein kinases (Homo sapiens, UniProt P51617); conditions: 2 h, kinase IRAK1; read-out: % Enzyme Activity (relative to DMSO controls)
T20 construct: purchased Reaction Biology Corporation (assay service)

[21] = target: T21, panel of 370 protein kinases (Homo sapiens, UniProt P23458); conditions: kinase JAK1
T21 construct: purchased Reaction Biology Corporation (assay service)

[22] = target: T22, panel of 370 protein kinases (Homo sapiens, UniProt P07947); conditions: 2 h, kinase YES/YES1; read-out: % Enzyme Activity (relative to DMSO controls)
T22 construct: purchased Reaction Biology Corporation (assay service)

T8 sequence (Q00526 whole entry): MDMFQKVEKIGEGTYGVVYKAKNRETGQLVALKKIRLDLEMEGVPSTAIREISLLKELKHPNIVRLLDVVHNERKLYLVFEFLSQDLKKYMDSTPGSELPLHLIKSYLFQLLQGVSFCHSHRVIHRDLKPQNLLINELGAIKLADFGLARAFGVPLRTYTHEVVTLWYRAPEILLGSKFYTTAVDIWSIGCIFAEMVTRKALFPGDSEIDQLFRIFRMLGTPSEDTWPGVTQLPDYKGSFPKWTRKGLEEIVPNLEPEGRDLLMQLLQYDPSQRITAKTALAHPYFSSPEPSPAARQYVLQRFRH
T21 sequence (P23458 whole entry): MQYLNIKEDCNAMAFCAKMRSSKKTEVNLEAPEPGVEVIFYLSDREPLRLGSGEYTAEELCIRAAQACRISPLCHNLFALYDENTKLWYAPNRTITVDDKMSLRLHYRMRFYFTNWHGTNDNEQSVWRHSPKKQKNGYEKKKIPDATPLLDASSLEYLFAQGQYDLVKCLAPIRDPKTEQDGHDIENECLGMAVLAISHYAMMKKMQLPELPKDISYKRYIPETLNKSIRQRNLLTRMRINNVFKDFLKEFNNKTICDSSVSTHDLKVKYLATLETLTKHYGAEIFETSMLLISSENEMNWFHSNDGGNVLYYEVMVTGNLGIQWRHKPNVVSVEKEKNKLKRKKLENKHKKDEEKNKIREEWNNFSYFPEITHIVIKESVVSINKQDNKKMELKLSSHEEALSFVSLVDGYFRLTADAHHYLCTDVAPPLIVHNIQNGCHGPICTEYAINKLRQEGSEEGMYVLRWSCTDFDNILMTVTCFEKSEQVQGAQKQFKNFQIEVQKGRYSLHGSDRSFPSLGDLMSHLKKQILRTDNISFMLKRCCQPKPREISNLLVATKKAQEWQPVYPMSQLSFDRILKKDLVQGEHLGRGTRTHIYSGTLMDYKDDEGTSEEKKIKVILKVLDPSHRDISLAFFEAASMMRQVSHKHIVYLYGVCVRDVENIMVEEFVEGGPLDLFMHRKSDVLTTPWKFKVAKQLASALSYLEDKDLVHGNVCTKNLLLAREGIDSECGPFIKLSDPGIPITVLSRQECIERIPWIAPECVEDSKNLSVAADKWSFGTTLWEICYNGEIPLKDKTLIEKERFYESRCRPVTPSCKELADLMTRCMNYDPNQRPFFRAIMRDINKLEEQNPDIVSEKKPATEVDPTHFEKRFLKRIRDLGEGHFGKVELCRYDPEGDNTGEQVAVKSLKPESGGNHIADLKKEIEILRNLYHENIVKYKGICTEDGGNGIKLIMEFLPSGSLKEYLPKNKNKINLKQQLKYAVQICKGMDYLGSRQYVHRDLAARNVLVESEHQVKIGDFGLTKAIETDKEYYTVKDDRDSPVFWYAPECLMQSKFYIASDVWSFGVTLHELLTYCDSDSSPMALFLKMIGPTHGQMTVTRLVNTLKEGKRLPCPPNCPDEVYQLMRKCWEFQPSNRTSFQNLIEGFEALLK
T12 sequence (Q08881 whole entry): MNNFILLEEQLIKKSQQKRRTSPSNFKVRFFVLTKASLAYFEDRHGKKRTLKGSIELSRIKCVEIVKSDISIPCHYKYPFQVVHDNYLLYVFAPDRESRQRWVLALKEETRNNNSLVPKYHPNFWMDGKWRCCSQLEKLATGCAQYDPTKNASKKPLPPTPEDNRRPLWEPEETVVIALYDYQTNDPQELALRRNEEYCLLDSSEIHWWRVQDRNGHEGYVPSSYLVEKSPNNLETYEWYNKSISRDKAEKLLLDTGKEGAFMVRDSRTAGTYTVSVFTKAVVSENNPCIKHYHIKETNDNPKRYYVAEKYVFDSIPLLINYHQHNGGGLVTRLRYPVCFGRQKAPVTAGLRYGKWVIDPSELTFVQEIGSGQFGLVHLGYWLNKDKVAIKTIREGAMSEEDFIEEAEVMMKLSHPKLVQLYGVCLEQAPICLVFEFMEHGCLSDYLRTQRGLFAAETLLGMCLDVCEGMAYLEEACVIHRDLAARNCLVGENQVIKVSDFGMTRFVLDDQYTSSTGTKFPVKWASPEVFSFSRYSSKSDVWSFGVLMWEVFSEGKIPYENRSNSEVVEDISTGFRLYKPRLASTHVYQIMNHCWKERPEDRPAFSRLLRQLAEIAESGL
T4 sequence (Q9NYY3 whole entry): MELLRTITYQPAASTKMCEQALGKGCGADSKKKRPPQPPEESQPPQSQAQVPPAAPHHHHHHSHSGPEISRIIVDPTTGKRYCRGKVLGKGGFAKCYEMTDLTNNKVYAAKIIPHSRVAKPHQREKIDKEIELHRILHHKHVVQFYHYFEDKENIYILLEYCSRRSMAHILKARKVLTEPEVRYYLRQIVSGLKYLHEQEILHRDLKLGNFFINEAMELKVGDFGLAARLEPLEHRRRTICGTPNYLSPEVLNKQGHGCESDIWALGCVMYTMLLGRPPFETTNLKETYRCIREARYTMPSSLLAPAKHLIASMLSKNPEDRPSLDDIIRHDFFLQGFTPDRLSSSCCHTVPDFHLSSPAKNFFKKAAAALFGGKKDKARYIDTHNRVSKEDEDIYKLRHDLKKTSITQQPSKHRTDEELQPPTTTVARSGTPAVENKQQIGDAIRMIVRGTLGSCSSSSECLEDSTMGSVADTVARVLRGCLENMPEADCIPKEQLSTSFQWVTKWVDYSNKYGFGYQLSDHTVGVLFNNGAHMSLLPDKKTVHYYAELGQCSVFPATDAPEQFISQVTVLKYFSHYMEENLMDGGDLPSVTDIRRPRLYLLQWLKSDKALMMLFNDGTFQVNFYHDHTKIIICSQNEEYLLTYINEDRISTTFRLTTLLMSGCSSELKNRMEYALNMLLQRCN
T9 sequence (Q9Y6E0 whole entry): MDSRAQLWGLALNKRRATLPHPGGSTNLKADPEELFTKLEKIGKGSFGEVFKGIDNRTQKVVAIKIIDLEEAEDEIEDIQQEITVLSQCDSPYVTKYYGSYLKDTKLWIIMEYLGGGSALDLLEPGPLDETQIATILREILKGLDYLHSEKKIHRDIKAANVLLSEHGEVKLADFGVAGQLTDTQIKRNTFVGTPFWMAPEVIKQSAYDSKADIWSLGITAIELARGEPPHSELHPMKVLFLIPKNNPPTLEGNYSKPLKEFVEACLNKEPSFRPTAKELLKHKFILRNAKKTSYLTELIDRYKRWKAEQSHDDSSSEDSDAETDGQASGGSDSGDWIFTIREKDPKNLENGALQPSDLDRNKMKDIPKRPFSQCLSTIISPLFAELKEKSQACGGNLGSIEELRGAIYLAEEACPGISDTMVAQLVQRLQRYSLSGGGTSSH
T2 sequence (P29597 whole entry): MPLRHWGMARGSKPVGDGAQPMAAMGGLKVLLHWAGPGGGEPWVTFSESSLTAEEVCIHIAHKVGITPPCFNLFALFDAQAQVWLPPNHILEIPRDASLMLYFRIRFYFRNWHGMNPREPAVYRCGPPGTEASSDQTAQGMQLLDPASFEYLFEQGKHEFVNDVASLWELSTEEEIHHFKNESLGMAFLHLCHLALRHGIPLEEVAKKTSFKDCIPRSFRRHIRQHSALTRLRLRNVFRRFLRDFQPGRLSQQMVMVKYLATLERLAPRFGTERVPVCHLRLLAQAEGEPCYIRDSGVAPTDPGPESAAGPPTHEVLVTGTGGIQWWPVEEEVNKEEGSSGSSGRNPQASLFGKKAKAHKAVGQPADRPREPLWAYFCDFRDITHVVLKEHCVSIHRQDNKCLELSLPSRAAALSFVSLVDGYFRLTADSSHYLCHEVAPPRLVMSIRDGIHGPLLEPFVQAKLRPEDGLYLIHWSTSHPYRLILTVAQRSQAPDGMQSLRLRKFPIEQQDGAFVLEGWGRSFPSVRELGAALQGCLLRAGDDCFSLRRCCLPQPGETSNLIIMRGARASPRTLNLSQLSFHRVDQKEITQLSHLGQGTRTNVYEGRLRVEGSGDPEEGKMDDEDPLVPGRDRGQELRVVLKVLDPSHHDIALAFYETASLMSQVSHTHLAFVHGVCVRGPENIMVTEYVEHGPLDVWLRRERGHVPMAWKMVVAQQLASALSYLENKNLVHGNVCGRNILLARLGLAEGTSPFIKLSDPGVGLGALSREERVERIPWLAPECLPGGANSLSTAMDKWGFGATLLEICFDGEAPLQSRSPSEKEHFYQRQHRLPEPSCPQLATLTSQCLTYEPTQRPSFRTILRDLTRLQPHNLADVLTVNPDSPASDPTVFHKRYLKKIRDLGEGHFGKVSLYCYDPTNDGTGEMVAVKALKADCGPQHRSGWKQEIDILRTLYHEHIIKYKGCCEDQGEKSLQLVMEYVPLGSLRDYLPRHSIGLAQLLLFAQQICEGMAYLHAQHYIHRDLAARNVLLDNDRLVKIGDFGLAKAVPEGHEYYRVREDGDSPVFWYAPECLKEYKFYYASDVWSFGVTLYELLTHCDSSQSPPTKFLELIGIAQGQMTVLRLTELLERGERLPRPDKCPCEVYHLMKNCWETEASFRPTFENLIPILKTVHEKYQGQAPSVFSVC
T3 sequence (P08631 whole entry): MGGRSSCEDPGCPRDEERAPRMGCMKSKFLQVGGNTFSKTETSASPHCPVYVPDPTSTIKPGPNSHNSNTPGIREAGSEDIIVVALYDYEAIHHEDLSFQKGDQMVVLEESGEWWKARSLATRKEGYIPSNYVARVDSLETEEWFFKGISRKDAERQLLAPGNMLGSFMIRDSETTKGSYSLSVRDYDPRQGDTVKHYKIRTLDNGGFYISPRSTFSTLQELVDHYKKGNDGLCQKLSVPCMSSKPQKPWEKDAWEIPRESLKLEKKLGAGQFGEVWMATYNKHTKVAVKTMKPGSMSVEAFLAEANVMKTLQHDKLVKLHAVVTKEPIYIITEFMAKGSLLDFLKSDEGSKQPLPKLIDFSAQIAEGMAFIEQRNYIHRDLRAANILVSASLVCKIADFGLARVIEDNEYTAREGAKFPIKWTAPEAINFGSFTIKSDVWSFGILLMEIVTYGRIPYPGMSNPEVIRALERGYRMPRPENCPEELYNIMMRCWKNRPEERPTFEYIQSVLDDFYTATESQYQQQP

## CCN1CCN(C(=O)c2ccc(Nc3ncc(F)c(-c4ccc5nc(N(C)C)sc5c4)n3)nc2)CC1 [YK-2-69]
[1]
  remaining activity at 1 µM: 75.7%
[2]
  % Enzyme Activity (relative to DMSO controls): 89.12% and 88.94%
[3]
  remaining activity at 1 µM: 105%
[4]
  % Enzyme Activity (relative to DMSO controls): 98.55% and 92.68%
[5]
  remaining activity at 1 µM: 105%
[6]
  remaining activity at 1 µM: 121%
[7]
  remaining activity at 1 µM: 96.2%
[8]; kinase CDK3/cyclin E
  % Enzyme Activity (relative to DMSO controls): 106.69% and 103.49%
[8]; kinase CDK3/cyclin E2
  % Enzyme Activity (relative to DMSO controls): 101.82% and 90.67%
[9]
  % Enzyme Activity (relative to DMSO controls): 107.35% and 104.50%
[10]
  remaining activity at 1 µM: 96.1%
[11]
  remaining activity at 1 µM: 99.7%
[12]
  % Enzyme Activity (relative to DMSO controls): 117.90% and 109.49%
[13]
  remaining activity at 1 µM: 94.6%
[14]
  remaining activity at 1 µM: 77.1%
[15]
  remaining activity at 1 µM: 89.2%
[16]
  remaining activity at 1 µM: 94.3%
[17]
  remaining activity at 1 µM: 88%
[18]
  remaining activity at 1 µM: 82%
[19]
  remaining activity at 1 µM: 106%
[20]
  remaining activity at 1 µM: 90.6%
[21]
  % Enzyme Activity (relative to DMSO controls): 103.96% and 100.40%
[22]
  remaining activity at 1 µM: 108%
